Source: patent publication US20230000813A1, “COMPOUND FOR THE TREATMENT OF BOVINE OR SWINE RESPIRATORY DISEASE” (Intervet Inc., priority 2016, published 2023)
Converted amounts (≈) assume the structure as drawn. Where two headings read alike, the source gives them in different places.

How the values were obtained:
Format in all cases: cell-based
[1] = system: Mannheimia haemolytica MH 13093 (XB0472-6014.1, BRD field isolate); assay: MIC, broth-microdilution (CLSI VET01-A4)
Method in brief: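 MIC read by eye as lowest compound concentration without visible growth (no turbidity), interpreted per CLSI VET01-S3. Doubling-dilution broth-microdilution trays, run according to CLSI VET01-A4.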

[2] = system: 20 isolates of Actinobacillus (A.) pleuropneumoniae; assay: MIC50/MIC90, broth-microdilution, European respiratory tract isolates
Experimental: (§1) The in vitro activity of compounds against 20 isolates of Actinobacillus (A.) pleuropneumoniae, 20 of Bordetella (B.) bronchiseptica, 20 of Histophilus (H.) somni, 40 of Mannheimia (M.) haemolytica and 40 of Pasteurella (P.) multocida collected in different European countries were determined. All bacteria were isolated from the respiratory tract of swine and cattle suffering from respiratory disease. All isolates were epidemiologically unrelated as specified by the different suppliers.
(§2) The minimum inhibitory concentrations (MIC) of compounds according to the invention were determined by the broth-microdilution method according to CLSI document VET01-A4.
(§3) Microdilution trays containing a doubling dilution series of the test compounds were used for the tests.
(§4) The MIC results were interpreted according to the CLSI documents VET01-S3. The lowest concentration of compound at which no visible growth (i.e. no turbidity) detected by the unaided eye was recorded as the MIC.

[3] = system: 40 isolates of Mannheimia (M.) haemolytica; assay: as above
Experimental: as §1, §2, §3, §4

[4] = system: 20 isolates of Histophilus (H.) somni; assay: as above
Experimental: as §1, §2, §3, §4

[5] = system: 20 isolates of Bordetella (B.) bronchiseptica; assay: as above
Experimental: as §1, §2, §3, §4

[6] = system: 40 isolates of Pasteurella (P.) multocida; assay: as above
Experimental: as §1, §2, §3, §4

[7] = system: Pasteurella multocida PM 6391 (ATCC 43137, reference strain); assay: MIC, broth-microdilution (CLSI VET01-A4)
Method in brief: (§5)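 Broth microdilution per CLSI VET01-A4 using doubling dilution series of test compound; results interpreted per CLSI VET01-S3. MIC recorded as lowest concentration giving no turbidity visible to the unaided eye.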

[8] = system: Pasteurella multocida PM 12080 (IV102277-0093, BRD field isolate); assay: MIC, broth-microdilution (CLSI VET01-A4)
Method in brief: as §5

[9] = system: Mannheimia haemolytica MH 12587 (1071, BRD field isolate, macrolide-resistance: erm+, E+); assay: MIC, broth-microdilution (CLSI VET01-A4); details: Mannheimia haemolytica MH 12587, macrolide-resistant
Method in brief: as §5

[10] = system: Pasteurella multocida PM 10775 (080130003051, BRD field isolate); assay: MIC, broth-microdilution (CLSI VET01-A4); details: strain PM 10775
Method in brief: as §5

[11] = system: Mannheimia haemolytica MH 10720 (154, BRD field isolate); assay: MIC, broth-microdilution (CLSI VET01-A4); details: strain MH 10720
Method in brief: as §5

[12] = system: Pasteurella multocida PM 6267 (P 2225 (L386), reference strain, mouse infection strain); assay: MIC, broth-microdilution (CLSI VET01-A4)
Method in brief: as §5

[13] = system: Mannheimia haemolytica MH 6374 (ATCC 33396, reference strain); assay: MIC, broth-microdilution (CLSI VET01-A4)
Method in brief: as §5

[14] = system: Mannheimia haemolytica MH 6357 (M7/2, reference strain, cattle infection strain); assay: MIC, broth-microdilution (CLSI VET01-A4)
Method in brief: as §5

[15] = system: 15 isolates of H. parasuis; assay: MIC50/MIC90, agar-dilution method (GC agar base); details: Haemophilus parasuis
Experimental: The in vitro activity of 3 representative compounds of this invention against 15 isolates of H. parasuis was determined. All strains were isolated from the respiratory tract of swine in different European countries The MICs for all isolates were determined by using the agar-dilution method according to CLSI document VET01-A4 [1]with the following modification: GC agar base was used instead of Mueller-Hinton agar base for the preparation of the agar-dilution plates. Results were interpreted according to the CLSI document VET01-S3.

[16] = system: Mannheimia haemolytica MH 12180 (KLI-02944, BRD field isolate); assay: MIC, broth-microdilution (CLSI VET01-A4); details: strain MH 12180
Experimental: (§6) The Minimum inhibitory concentrations (MIC) of compounds according to the invention were determined by the broth-microdilution method according to CLSI document VET01-A4.
(§7) Microdilution trays containing a doubling dilution series of the test compound were used for the tests.
as §4

[17] = system: Staphylococcus aureus SA 5816 (2139, mastitis field isolate); assay: MIC, broth-microdilution (CLSI VET01-A4); details: strain SA 5816
Experimental: as §6, §7, §4

[18] = system: Pasteurella multocida PM 14426 (0006-439, BRD field isolate, macrolide-resistant); assay: MIC, broth-microdilution (CLSI VET01-A4); details: strain PM 14426, macrolide-resistant
Experimental: as §6, §7, §4

[19] = system: Staphylococcus aureus SA 6114 (ATCC 29213, reference strain); assay: MIC, broth-microdilution (CLSI VET01-A4); details: strain SA 6114
Experimental: as §6, §7, §4

[20] = system: Acinetobacter baumanii AB 16496 (ATCC 19606, reference strain); assay: MIC, broth-microdilution (CLSI VET01-A4); details: strain AB 16496
Experimental: as §6, §7, §4

[21] = system: Acinetobacter baumanii AB 15919 (IV369-2012, dermatitis field isolate); assay: MIC, broth-microdilution (CLSI VET01-A4); details: strain AB 15919
Experimental: as §6, §7, §4

## C[C@@H](O)[C@H](NC(=O)c1ccc(C#Cc2ccc(CNCC(F)(F)F)cc2)cc1)C(=O)NO [C. 467]
[1]
  MIC: 0.4 µM (≈ 0.18 µg/mL)
[2]
  MIC50: 0.032 µg/mL (≈ 0.0712 µM)
  MIC90: 0.063 µg/mL (≈ 0.14 µM)
[3]
  MIC50: 0.032 µg/mL (≈ 0.0712 µM)
  MIC90: 0.063 µg/mL (≈ 0.14 µM)
[4]
  MIC50: ≤0.016 µg/mL
  MIC90: ≤0.016 µg/mL
[5]
  MIC50: 2 µg/mL (≈ 4.45 µM)
  MIC90: 2 µg/mL (≈ 4.45 µM)
[6]
  MIC50: ≤0.016 µg/mL
  MIC90: ≤0.016 µg/mL
[7]; Pasteurella multocida PM 6391
  MIC PM 6391: <=0.1 μM
[7]; strain PM 6391
  MIC: 0.032 µg/mL (≈ 0.0712 µM)
[8]; Pasteurella multocida PM 12080
  MIC PM 12080: <=0.1 μM
[8]; strain PM 12080
  MIC: ≤0.016 µg/mL
[9]
  MIC MH 12587: 0.4 µM (≈ 0.18 µg/mL)
[10]
  MIC: ≤0.016 µg/mL
[11]
  MIC: ≤0.016 µg/mL
[12]; Pasteurella multocida PM 6267
  MIC PM 6267: <=0.1 μM
[12]; strain PM 6267
  MIC: 0.032 µg/mL (≈ 0.0712 µM)
[13]; Mannheimia haemolytica MH 6374, read-out: MIC MH 6374
  MIC: 0.2 µM
[13]; strain MH 6374
  MIC: 0.063 µg/mL
[14]; Mannheimia haemolytica MH 6357
  MIC MH 6357: <=0.1 μM
[14]; strain MH 6357
  MIC: 0.125 µg/mL (≈ 0.278 µM)
[15]
  MIC50: 0.125 µg/mL (≈ 0.278 µM)
  MIC90: 0.25 µg/mL (≈ 0.556 µM)
[16]
  MIC: 0.032 µg/mL (≈ 0.0712 µM)
[17]
  MIC: >16 µg/mL
[18]
  MIC: ≤0.016 µg/mL
[19]
  MIC: >16 µg/mL
[20]
  MIC: >16 µg/mL
[21]
  MIC: >16 µg/mL
